Assay: Solubility of FDKP as a function of pH
Type: physicochemical

solubility (at neutral or basic pH): readily soluble
solubility (in acid): low solubility
SMILES: O=C(O)/C=C/C(=O)NCCCCC1NC(=O)C(CCCCNC(=O)/C=C/C(=O)O)NC1=O (centres unmarked) [FDKP, 3,6-bis(N-fumaryl-4-aminobutyl)-2,5-diketopiperazine]
